{"source": "patent US20120244567A1", "about": "“HUMAN EMBRYONIC STEM CELLS FOR HIGH THROUGHOUT DRUG SCREENING” (BUCK INSTITUTE FOR RESEARCH ON AGING, priority 2009, published 2012)", "key": {"[1]": {"test_system": "human fetal-derived astrocytes", "experiment": "Effect on human astrocytes (cell death)", "type": "cell-based", "conditions": "up to 48 hours after treatment", "description": "Media was changed every other day and cells were passaged once a week at a 1:4 ratio."}, "[2]": {"test_system": "hESCs and hESC-derived NSCs", "experiment": "Comparative ATP screening on hESCs and hESC-derived NSCs (ratio ESC/NSC or NSC/ESC)", "set-up": "hit class in primary screen / ESC/NSC: dose or concentration left out as unconfirmed", "conditions": "NINDS primary screen, ATP relative to DMSO controls", "from_the_text": "Hits were defined based on the ability of a compound to affect ATP levels relative to DMSO controls on each plate."}, "2102Ep cells": {"test_system": "2102Ep cells", "experiment": "Effect on immortal cell line 2102Ep", "type": "cell-based, human", "conditions": "48 hours after treatment, data not shown", "description": "Media was changed every day and cells were passaged every 3-4 days at a ratio of between 1:4 to 1:6."}, "hESCs": {"test_system": "hESCs", "experiment": "ATP assay in hESCs (96-well)", "type": "cell-based, human", "set-up": "dose or concentration left out as unconfirmed", "conditions": "48 h (FIG. 5)", "procedure": "Media was changed every day for hESCs and every other day for NSCs and additionally changed prior to drug treatment. […] […] For all sampling, ESC and NSC plates were processed in parallel for one drug or control condition at a time.\nFor ATP measurements, the media was removed, cells were washed 1× in milliQ water and reconstituted in […] ATP-Lite Mammalian Lysis Buffer and shaken for 5 minutes. Two […] aliquots of lysed cells were replated onto separate 96 well plates for later protein measurements.\nTo identify compounds that are toxic to hESCs, hESC-derived NSCs, or both, we screened 720 FDA-approved drugs of the NINDS collection by testing the toxicity of each drug at a dose of 2.5 mM. For endpoint measurement of cell death caused by drug toxicity, we used a widely accepted ATP assay that measures changes in ATP level as an indicator of cellular response to cell death. In this assay, total ATP content per well was measured and normalized to the total cellular protein."}}, "note": "Counter-ions that a name gives are not always drawn."}
{"compound": "CCCCc1oc2ccccc2c1C(=O)c1cc(I)c(OCCN(CC)CC)c(I)c1", "note": "[Amiodarone Hydrochloride]", "values": [{"measurement": "astrocyte cell death", "setting": "[1]", "value": "did not cause astrocyte cell death"}, {"measurement": "hit class in primary screen", "setting": "[2]", "value": "NSC Killers"}, {"measurement": "effect on 2102Ep cells", "setting": "2102Ep cells", "value": "no effect"}, {"measurement": "effect seen in hESC (ATP levels)", "setting": "hESCs", "value": "intermediate between NSCs and dopaminergic neurons"}]}
